Earlier results on one compound are cited in patent publication US20220015356A1, “AQUEOUS SOLUTIONS OF POORLY SOLUBLE PESTICIDES USING POLYALKYOXYLATED ALCOHOLS” (priority 2018, published 2022).

For the data set the following is noted: at 20° C.

Molecules are shown by their SMILES.

Consider `COC(=O)N(OC)c1ccccc1COc1ccn(-c2ccc(Cl)cc2)n1` [pyraclostrobin], for which the water solubility was under 1.9 µg/mL.
